Measured values reported in patent US12043600B2, “Microbiocidal compounds” (SYNGENTA CROP PROTECTION AG, priority 2018, dated 2024).
Where two headings read alike, the source gives them in different places.

Columns and labels:
[1] = test system: Mycosphaerella arachidis (Cercospora arachidicola); assay: Mycosphaerella arachidis (Cercospora arachidicola)/Liquid Culture (Early Leaf Spot); type: cell-based; conditions: liquid culture, compared to untreated control
How it was run: (§1)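 PDB + cryo-stored conidia; compound in DMSO pre-plated, spore broth added on top.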

[2] = test system: Phaeosphaeria nodorum (Septoria nodorum); assay: Phaeosphaeria nodorum (Septoria nodorum)/Wheat/Leaf Disc Preventative (Glume Blotch); type: in vivo; conditions: Parastagonospora nodorum, foliar, wheat leaf disc preventative, compared to untreated control
How it was run: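 Preventative test: compound spray first, then spore inoculation after 2 days on cv. Kanzler wheat leaf segments. Incubation in a climate cabinet at 20 °C and 75% rh under a 12 h light/12 h dark cycle. Activity rated as % control relative to untreated discs at 5–7 days post-application.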

Plasmopara viticola = assay: whole plant or invertebrate; type: in vivo; conditions: foliar, read-out: control of Plasmopara viticola
Alternaria solani = assay: Alternaria solani/Tomato/Leaf Disc (Early Blight); type: in vivo; conditions: foliar, tomato leaf disc, compared to untreated control
Protocol: Tomato leaf disks cv. Baby are placed on agar in multiwell plates (24-well format) and sprayed with the formulated test compound diluted in water. The leaf disks are inoculated with a spore suspension of the fungus 2 days after application. The inoculated leaf disks are incubated at 23° C./21° C. (day/night) and 80% rh (relative humidity) under a light regime of 12/12 h (light/dark) in a climate cabinet and the activity of a compound is assessed as percent disease control compared to untreated when an appropriate level of disease damage appears on untreated check disk leaf disks (5-7 days after application).

Phytophthora infestans = assay: whole plant or invertebrate; type: in vivo; conditions: in Solanum lycopersicum, foliar, read-out: control of Phytophthora infestans
Pyrenophora teres = assay: Pyrenophora teres/Barley/Leaf Disc Preventative (Net Blotch); type: in vivo; conditions: foliar, 200 ppm, barley leaf disc preventative, compared to untreated control, read-out: control of Pyrenophora teres
How it was run: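 Preventative leaf-disc test: inoculation with fungal spores took place 2 days after spraying segments of barley cv. Hasso, placed on agar, with water-diluted formulated compound. Read-out is % disease control per compound.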

[3] = test system: Monographella nivalis (Microdochium nivale); assay: Monographella nivalis (Microdochium nivale)/Liquid Culture (Foot Rot Cereals); type: cell-based; conditions: liquid culture, compared to untreated control
How it was run: as §1

[4] = test system: Magnaporthe grisea (Pyricularia oryzae); assay: whole plant or invertebrate; type: in vivo; conditions: foliar, read-out: control of Magnaporthe grisea
[5] = test system: Mycosphaerella graminicola (Septoria tritici); assay: Mycosphaerella graminicola (Septoria tritici)/Liquid Culture (Septoria Blotch); type: cell-based; conditions: Zymoseptoria tritici; 20 ppm; liquid culture; compared to untreated control
How it was run: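 Results given as % disease control: test compound in DMSO was placed in wells first, then potato dextrose broth carrying cryostored fungal conidia was added.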

[6] = test system: Puccinia recondita f. sp. tritici; assay: Puccinia recondita f. sp. tritici/Wheat/Leaf Disc Preventative (Brown Rust); type: in vivo; conditions: foliar, 200 ppm, wheat leaf disc preventative, compared to untreated control, read-out: control of Puccinia recondita f. sp. tritici
[7] = test system: Botryotinia fuckeliana (Botrytis cinerea); assay: Botryotinia fuckeliana (Botrytis cinerea)/Liquid Culture (Gray Mould); type: cell-based; conditions: liquid culture, compared to untreated control
Protocol: Conidia of the fungus from cryogenic storage are directly mixed into nutrient broth (Vogels broth). After placing a (DMSO) solution of test compound into a microtiter plate (96-well format), the nutrient broth containing the fungal spores is added.

[8] = test system: Puccinia recondita f. sp. tritici; assay: Puccinia recondita f. sp. tritici/Wheat/Leaf Disc Curative (Brown Rust); type: in vivo; conditions: foliar, wheat leaf disc curative, compared to untreated control
How it was run: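 Formulated compound, diluted in water, is applied to inoculated wheat cv. Kanzler leaf segments on agar one day post-inoculation (pre-incubation dark, 19° C, 75% rh). After 6-8 days at 19° C, 75% rh and 12 h/12 h light, activity is rated as percent disease control relative to untreated segments.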

[9] = test system: Glomerella lagenarium (Colletotrichum lagenarium); assay: Glomerella lagenarium (Colletotrichum lagenarium)/Liquid Culture (Anthracnose); type: cell-based; conditions: Colletotrichum orbiculare, liquid culture, compared to untreated control
[10] = test system: Blumeria graminis f. sp. tritici (Erysiphe graminis f. sp. tritici); assay: Blumeria graminis f. sp. tritici/Wheat/Leaf Disc Preventative (Powdery Mildew on Wheat); type: in vivo; conditions: foliar, wheat leaf disc preventative, compared to untreated control
How it was run: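 Preventative leaf-disc test: percent disease control versus untreated leaf segments read 6-8 days post-application. Compound spray applied to wheat cv. Kanzler segments on agar one day before shaking infected plants over them; incubation at 20° C and 60% rh, 24 h darkness then 12 h light/12 h dark cycles.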

Phakopsora pachyrhizi = assay: Phakopsora pachyrhizi/Soybean/Preventative (Soybean Rust); type: in vivo; conditions: 288 h
[11] = foliar, soybean leaf disc preventative, compared to untreated control, read-out: control of Phakopsora pachyrhizi

CO/C=C(\Oc1cc(-n2ccc(C#CC3CC3)n2)ccc1C)C(=O)OC [Compound E-1, methyl (Z)-2-[5-[3-(2-cyclopropylethynyl)pyra-zol-1-yl]-2-methyl-phenoxy]-3-methoxy-prop-2-enoate]
inhibition of growth at 20 ppm [1]: ≥ 80%
pest or weed control at 200 ppm [2]: ≥ 80%
pest or weed control at 200 ppm (Plasmopara viticola): ≥ 80%
pest or weed control at 200 ppm (Alternaria solani): ≥ 80%
pest or weed control at 200 ppm (Phytophthora infestans): ≥ 80%
pest or weed control at 200 ppm (Pyrenophora teres): ≥ 80%
inhibition of growth at 20 ppm [3]: ≥ 80%
pest or weed control at 200 ppm [4]: ≥ 80%
melting point: 158 to 162 °C
inhibition of growth at 20 ppm [5]: ≥ 80%
pest or weed control at 200 ppm [6]: ≥ 80%

CO/C=C(\Oc1cc(-n2ccc(C(F)(F)F)n2)c(C)cc1C)C(=O)OC [Compound E-16, methyl (Z)-2-[2,4-dimethyl-5-[3-(trifluoromethyl)pyrazol-1-yl]phenoxy]-3-methoxy-prop-2-enoate]
inhibition of growth at 20 ppm [1]: ≥ 80%
pest or weed control at 200 ppm (Alternaria solani): ≥ 80%
inhibition of growth at 20 ppm [7]: ≥ 80%
pest or weed control at 200 ppm [8]: ≥ 80%
inhibition of growth at 20 ppm [3]: ≥ 80%
inhibition of growth at 20 ppm [9]: ≥ 80%
pest or weed control at 200 ppm [10]: ≥ 80%
melting point: 96 to 98 °C
inhibition of growth at 20 ppm [5]: ≥ 80%
pest or weed control at 200 ppm [6]: ≥ 80%

CO/C=C(\Oc1cc(-n2ccc(C(C)C)n2)c(Cl)cc1C)C(=O)OC [Compound E-29, methyl (Z)-2-[4-chloro-5-(3-isopropylpyrazol-1-yl)-2-methyl-phenoxy]-3-methoxy-prop-2-enoate]
inhibition of growth at 20 ppm [1]: ≥ 80%
pest or weed control at 200 ppm [2]: ≥ 80%
pest or weed control at 200 ppm (Plasmopara viticola): ≥ 80%
pest or weed control at 200 ppm (Alternaria solani): ≥ 80%
pest or weed control at 200 ppm (Phytophthora infestans): ≥ 80%
inhibition of growth at 20 ppm [7]: ≥ 80%
pest or weed control at 200 ppm [8]: ≥ 80%
inhibition of growth at 20 ppm [3]: ≥ 80%
inhibition of growth at 20 ppm [9]: ≥ 80%
pest or weed control at 200 ppm [10]: ≥ 80%
pest or weed control at 200 ppm [4]: ≥ 80%
melting point: 96 to 98 °C
inhibition of growth at 20 ppm [5]: ≥ 80%
pest or weed control at 200 ppm [6]: ≥ 80%

CO/C=C(\Oc1cc(-n2ccc(C)n2)c(F)cc1C)C(=O)OC [Compound E-64, methyl (Z)-2-[4-fluoro-2-methyl-5-(3-methylpyrazol-1-yl)phenoxy]-3-methoxy-prop-2-enoate]
inhibition of growth at 20 ppm [1]: ≥ 80%
pest or weed control at 200 ppm (Plasmopara viticola): ≥ 80%
pest or weed control at 200 ppm (Alternaria solani): ≥ 80%
pest or weed control at 200 ppm (Phakopsora pachyrhizi; [11]): ≥ 50%
inhibition of growth at 20 ppm [7]: ≥ 80%
pest or weed control at 200 ppm [8]: ≥ 80%
inhibition of growth at 20 ppm [3]: ≥ 80%
inhibition of growth at 20 ppm [9]: ≥ 80%
pest or weed control at 200 ppm [10]: ≥ 80%
pest or weed control at 200 ppm [4]: ≥ 80%
melting point: 134 to 138 °C
inhibition of growth at 20 ppm [5]: ≥ 80%

CO/C=C(\Oc1cc(-n2ccc(Br)n2)ccc1C)C(=O)OC [Compound E-83, methyl (Z)-2-[5-(3-bromopyrazol-1-yl)-2-methyl-phenoxy]-3-methoxy-prop-2-enoate]
inhibition of growth at 20 ppm [1]: ≥ 80%
pest or weed control at 200 ppm [2]: ≥ 80%
pest or weed control at 200 ppm (Plasmopara viticola): ≥ 80%
pest or weed control at 200 ppm (Alternaria solani): ≥ 80%
pest or weed control at 200 ppm (Phytophthora infestans): ≥ 80%
pest or weed control at 200 ppm (Pyrenophora teres): ≥ 80%
inhibition of growth at 20 ppm [3]: ≥ 80%
inhibition of growth at 20 ppm [9]: ≥ 80%
pest or weed control at 200 ppm [10]: ≥ 80%
pest or weed control at 200 ppm [4]: ≥ 80%
melting point: 106 to 110 °C
inhibition of growth at 20 ppm [5]: ≥ 80%
pest or weed control at 200 ppm [6]: ≥ 80%

CO/C=C(\Oc1cc(-n2ccc(Cl)n2)ccc1Br)C(=O)OC [Compound E-85, methyl (Z)-2-[2-bromo-5-(3-chloropyrazol-1-yl)phenoxy]-3-methoxy-prop-2-enoate]
inhibition of growth at 20 ppm [1]: ≥ 80%
pest or weed control at 200 ppm [2]: ≥ 80%
pest or weed control at 200 ppm (Plasmopara viticola): ≥ 80%
pest or weed control at 200 ppm (Alternaria solani): ≥ 80%
pest or weed control at 200 ppm (Phakopsora pachyrhizi; [11]): ≥ 50%
inhibition of growth at 20 ppm [7]: ≥ 80%
inhibition of growth at 20 ppm [3]: ≥ 80%
inhibition of growth at 20 ppm [9]: ≥ 80%
pest or weed control at 200 ppm [10]: ≥ 80%
pest or weed control at 200 ppm [4]: ≥ 80%
inhibition of growth at 20 ppm [5]: ≥ 80%
pest or weed control at 200 ppm [6]: ≥ 80%

CO/C=C(\Oc1cc(-n2ccc(C3CC3)n2)ccc1Cl)C(=O)OC [Compound E-99, methyl (Z)-2-[2-chloro-5-(3-cyclopropylpyrazol-1-yl)phenoxy]-3-methoxy-prop-2-enoate]
inhibition of growth at 20 ppm [1]: ≥ 80%
pest or weed control at 200 ppm [2]: ≥ 80%
pest or weed control at 200 ppm (Plasmopara viticola): ≥ 80%
pest or weed control at 200 ppm (Alternaria solani): ≥ 80%
pest or weed control at 200 ppm (Phytophthora infestans): ≥ 80%
pest or weed control at 200 ppm (Phakopsora pachyrhizi; [11]): ≥ 50%
inhibition of growth at 20 ppm [7]: ≥ 80%
pest or weed control at 200 ppm [8]: ≥ 80%
inhibition of growth at 20 ppm [3]: ≥ 80%
inhibition of growth at 20 ppm [9]: ≥ 80%
pest or weed control at 200 ppm [10]: ≥ 80%
pest or weed control at 200 ppm [4]: ≥ 80%
inhibition of growth at 20 ppm [5]: ≥ 80%
pest or weed control at 200 ppm [6]: ≥ 80%

CCCc1cnn(-c2ccc(C)c(O/C(=C\OC)C(=O)OC)c2)n1 [Compound F-2, methyl (Z)-3-methoxy-2-[2-methyl-5-(4-propyltriazol-2-yl)phenoxy]prop-2-enoate]
inhibition of growth at 20 ppm [1]: ≥ 80%
pest or weed control at 200 ppm [2]: ≥ 80%
pest or weed control at 200 ppm (Plasmopara viticola): ≥ 80%
pest or weed control at 200 ppm (Alternaria solani): ≥ 80%
pest or weed control at 200 ppm (Phytophthora infestans): ≥ 80%
pest or weed control at 0.6 ppm (Phakopsora pachyrhizi; Phakopsora pachyrhizi (Soybean rust), 0.6 ppm): 0%
pest or weed control at 2 ppm (Phakopsora pachyrhizi; Phakopsora pachyrhizi (Soybean rust), 2 ppm): 20%
pest or weed control at 6 ppm (Phakopsora pachyrhizi; Phakopsora pachyrhizi (Soybean rust), 6 ppm): 50%
pest or weed control at 20 ppm (Phakopsora pachyrhizi; Phakopsora pachyrhizi (Soybean rust), 20 ppm): 90%
pest or weed control at 60 ppm (Phakopsora pachyrhizi; Phakopsora pachyrhizi (Soybean rust), 60 ppm): 100%
pest or weed control at 200 ppm (Phakopsora pachyrhizi; Phakopsora pachyrhizi (Soybean rust), read-out: control (%)): 100%
pest or weed control at 200 ppm (Pyrenophora teres): ≥ 80%
inhibition of growth at 20 ppm [3]: ≥ 80%
inhibition of growth at 20 ppm [9]: ≥ 80%
pest or weed control at 200 ppm [4]: ≥ 80%
inhibition of growth at 20 ppm [5]: ≥ 80%

CO/C=C(\Oc1cc(-n2ncc(C(C)C)n2)ccc1C)C(=O)OC [Compound F-4, methyl (Z)-2-[5-(4-isopropyltriazol-2-yl)-2-methyl-phenoxy]-3-methoxy-prop-2-enoate]
inhibition of growth at 20 ppm [1]: ≥ 80%
pest or weed control at 200 ppm [2]: ≥ 80%
pest or weed control at 200 ppm (Plasmopara viticola): ≥ 80%
pest or weed control at 200 ppm (Alternaria solani): ≥ 80%
pest or weed control at 200 ppm (Phytophthora infestans): ≥ 80%
pest or weed control at 200 ppm (Pyrenophora teres): ≥ 80%
inhibition of growth at 20 ppm [3]: ≥ 80%
inhibition of growth at 20 ppm [9]: ≥ 80%
pest or weed control at 200 ppm [10]: ≥ 80%
pest or weed control at 200 ppm [4]: ≥ 80%
inhibition of growth at 20 ppm [5]: ≥ 80%

CO/C=C(\Oc1cc(-n2nc(Br)c(Br)n2)ccc1C)C(=O)OC [Compound F-10, methyl (Z)-2-[5-(4,5-dibromotriazol-2-yl)-2-methyl-phenoxy]-3-methoxy-prop-2-enoate]
inhibition of growth at 20 ppm [1]: ≥ 80%
pest or weed control at 200 ppm [2]: ≥ 80%
pest or weed control at 200 ppm (Plasmopara viticola): ≥ 80%
pest or weed control at 200 ppm (Alternaria solani): ≥ 80%
pest or weed control at 200 ppm (Phytophthora infestans): ≥ 80%
pest or weed control at 200 ppm (Pyrenophora teres): ≥ 80%
inhibition of growth at 20 ppm [9]: ≥ 80%
pest or weed control at 200 ppm [10]: ≥ 80%
pest or weed control at 200 ppm [4]: ≥ 80%
inhibition of growth at 20 ppm [5]: ≥ 80%
pest or weed control at 200 ppm [6]: ≥ 80%
